The values below come from PubChem BioAssay AID330 (DTP/NCI, 2004).

The test deals with P388 leukemia ip, CD2F1 mice, survival T/C. Kind of test: NCI In Vivo Anticancer Drug Screen. Data for tumor model P388 Leukemia (intraperitoneal) in CD2F1 (CDF1) mice. Particulars: endpoint: median survival time, higher = longer survival. The essentials:
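Mice carrying the transplanted tumor received test compound or vehicle. Survival was recorded in each group, and the value is the treated-group measurement divided by that of the vehicle-treated control group.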

[1] abbreviates: dose: 25.0 mg/kg/injection, schedule: Q01DX009 (ip), vehicle: other.
Setting [2] is: dose: 50.0 mg/kg/injection, schedule: Q01DX005 (ip), vehicle: saline with Tween-80.
Where [3] appears, read: dose: 100.0 mg/kg/injection, schedule: Q01DX005 (ip), vehicle: saline with Tween-80.
Where [4] appears, read: dose: 200.0 mg/kg/injection, schedule: Q01DX005 (ip), vehicle: saline with Tween-80.
The mark [5] stands for this setting: dose: 50.0 mg/kg/injection, schedule: Q01DX009 (ip), vehicle: saline with Tween-80.
Where [6] appears, read: dose: 100.0 mg/kg/injection, schedule: Q01DX009 (ip), vehicle: saline with Tween-80.
[7] abbreviates: dose: 200.0 mg/kg/injection, schedule: Q01DX009 (ip), vehicle: saline with Tween-80.
[8] abbreviates: dose: 12.5 mg/kg/injection, schedule: Q01DX009 (ip), vehicle: saline with Tween-80.

Values joined by “and” are separate entries in the source; they are usually repeats but may differ in a detail not shown here. Equal entries are not always repeated. Toxic doses and inconclusive results are not listed.

On to `NCCNc1ccc(NCCN)c2c1C(=O)c1ccccc1C2=O`, for which the T/C was 150 % of control (dose: 0.78 mg/kg/injection, schedule: Q01DX009 (ip), vehicle: distilled water + alcohol); 185 % of control (dose: 2.0 mg/kg/injection, schedule: Q01DX009 (ip), vehicle: acid diluted with saline); 107 % of control (dose: 3.13 mg/kg/injection, schedule: Q01DX009 (ip), vehicle: distilled water + alcohol); 194 % of control (dose: 4.0 mg/kg/injection, schedule: Q01DX009 (ip), vehicle: acid diluted with saline); 159 % of control (dose: 6.25 mg/kg/injection, schedule: Q01DX009 (ip), vehicle: distilled water + alcohol); 203 % of control (dose: 8.0 mg/kg/injection, schedule: Q01DX009 (ip), vehicle: acid diluted with saline). For the same compound, the T/C is 174 % of control (dose: 12.5 mg/kg/injection, schedule: Q01DX009 (ip), vehicle: distilled water + alcohol); 243 % of control (dose: 16.0 mg/kg/injection, schedule: Q01DX009 (ip), vehicle: acid diluted with saline); 215 % of control (dose: 25.0 mg/kg/injection, schedule: Q01DX009 (ip), vehicle: distilled water + alcohol); 158 % of control under setting [1].

For the compound `CCOC(=O)C1=C(C)O/C(=C/c2cccc(Cl)c2)C1=O`, the T/C was 117 % of control and 119 % of control under setting [2]; 121 % of control and 123 % of control under setting [3]; 113 % of control under setting [4].

On to `O=[N+]([O-])c1ccc(N2CCCC2)c([N+](=O)[O-])c1`, for which the T/C was 100 % of control (dose: 25.0 mg/kg/injection, schedule: Q01DX009 (ip), vehicle: saline with Tween-80); 104 % of control under setting [5]; 100 % of control under setting [6]; 100 % of control under setting [7].

As to `COc1ccc(CS(=O)CC(N)C(=O)O)cc1` (stereo unspecified), the T/C is, setting by setting: (dose: 100.0 mg/kg/injection, schedule: Q04DX002 (ip), vehicle: saline with Tween-80) 98 % of control; (dose: 200.0 mg/kg/injection, schedule: Q04DX002 (ip), vehicle: saline with Tween-80) 104 % of control; (dose: 400.0 mg/kg/injection, schedule: Q04DX002 (ip), vehicle: saline with Tween-80) 86 % of control.

As for `CCOC(=O)CC1(O)CCC2C3CC=C4CC(OC5CCCCO5)CCC4(C)C3CCC21C` (stereo unspecified), the T/C is, setting by setting: (dose: 3.0 mg/kg/injection, schedule: Q01DX009 (ip), vehicle: saline with Tween-80) 101 % of control; (dose: 6.0 mg/kg/injection, schedule: Q01DX009 (ip), vehicle: saline with Tween-80) 99 % of control; (dose: 12.0 mg/kg/injection, schedule: Q01DX009 (ip), vehicle: saline with Tween-80) 100 % of control; under setting [8], 88 % of control.

Turning to `CC1CN=C(c2ccc(NC(=O)c3ccc(C(=O)Nc4ccc(C5=NCC(C)N5)cc4)c(N)c3)cc2)N1` (stereo unspecified), the T/C is 100 % of control (dose: 0.5 mg/kg/injection, schedule: Q04DX003 (ip), vehicle: saline); 110 % of control (dose: 1.0 mg/kg/injection, schedule: Q04DX003 (ip), vehicle: saline); 120 % of control (dose: 2.0 mg/kg/injection, schedule: Q04DX003 (ip), vehicle: saline); 195 % of control (dose: 2.5 mg/kg/injection, schedule: Q01DX009 (ip), vehicle: saline with Tween-80); 255 % of control (dose: 5.0 mg/kg/injection, schedule: Q01DX009 (ip), vehicle: saline with Tween-80); 170 % of control (dose: 10.0 mg/kg/injection, schedule: Q01DX009 (ip), vehicle: saline with Tween-80). Besides, the T/C (dose: 10.0 mg/kg/injection, schedule: Q04DX003 (ip), vehicle: saline with Tween-80) was 159 % of control.

`Cc1cccc(Oc2cnc(=O)[nH]c2)c1`: the T/C is 100 % of control under setting [5], 93 % of control under setting [6] and 99 % of control under setting [7].

For `Cc1cc2cc3c(=O)[nH]c(=O)cc-3n(CC(O)C(O)C(O)CO)c2cc1C` (stereo unspecified), the T/C runs as follows: (dose: 12.5 mg/kg/injection, schedule: Q01DX009 (ip), vehicle: other) 102 % of control; under setting [1], 96 % of control; (dose: 50.0 mg/kg/injection, schedule: Q01DX009 (ip), vehicle: other) 96 % of control; (dose: 100.0 mg/kg/injection, schedule: Q01DX009 (ip), vehicle: other) 95 % of control.

Take `CC[C@H]1C[C@H]2CN(CCc3c([nH]c4ccccc34)[C@@](C(=O)OC)(c3cc4c(cc3OC)N(C=O)[C@H]3[C@@](O)(C(=O)OC)[C@H](OC(C)=O)[C@]5(CC)CCCN6CC[C@]43[C@@H]65)C2)C1`: the T/C runs as follows: (dose: 0.5 mg/kg/injection, schedule: Q01DX001 (ip), vehicle: water) 109 % of control; (dose: 1.0 mg/kg/injection, schedule: Q01DX001 (ip), vehicle: water) 107 % of control; (dose: 8.0 mg/kg/injection, schedule: Q01DX001 (ip), vehicle: water) 119 % of control.

Turning to `CCCCNc1ccc(C(=O)OC2CCN(C)CC2)c(Cl)c1`, the T/C was 111 % of control and 119 % of control and 97 % of control (dose: 0.79 mg/kg/injection, schedule: Q01DX009 (ip), vehicle: saline with Tween-80); 106 % of control and 119 % of control (dose: 1.56 mg/kg/injection, schedule: Q01DX009 (ip), vehicle: saline with Tween-80); 107 % of control under setting [8].

As to `Nc1ccc2ncccc2c1[N+](=O)[O-]`, the T/C was 95 % of control (dose: 100.0 mg/kg/injection, schedule: Q04DX003 (ip), vehicle: saline with Tween-80) and 94 % of control (dose: 200.0 mg/kg/injection, schedule: Q04DX003 (ip), vehicle: saline with Tween-80).

Consider `C=C1C(=O)C23C(O)CC4C(C)(C)[C@@H](OC(C)=O)CCC4(C)[C@]2(O)CCC1[C@@H]3O` (stereo partly specified), for which the T/C by setting is: (dose: 5.0 mg/kg/injection, schedule: Q01DX005 (ip), vehicle: Klucel (hydroxypropylcellulose) (HPC)) 106 % of control; (dose: 10.0 mg/kg/injection, schedule: Q01DX005 (ip), vehicle: Klucel (hydroxypropylcellulose) (HPC)) 110 % of control; (dose: 20.0 mg/kg/injection, schedule: Q01DX005 (ip), vehicle: Klucel (hydroxypropylcellulose) (HPC)) 112 % of control; (dose: 40.0 mg/kg/injection, schedule: Q01DX005 (ip), vehicle: Klucel (hydroxypropylcellulose) (HPC)) 114 % of control.

With `CCOc1c(N=Nc2ccccc2Cl)c(C)nn1C(N)=S`, the T/C was 103 % of control (dose: 3.75 mg/kg/injection, schedule: Q01DX005 (ip), vehicle: Klucel + Tween-80); 103 % of control (dose: 7.5 mg/kg/injection, schedule: Q01DX005 (ip), vehicle: Klucel + Tween-80); 100 % of control and 110 % of control (dose: 15.0 mg/kg/injection, schedule: Q01DX005 (ip), vehicle: Klucel + Tween-80).

With `CC1=C2C=CCC[C@H](C)[C@H]2CC1`, the T/C is 95 % of control (dose: 3.5 mg/kg/injection, schedule: Q01DX005 (ip), vehicle: water); 95 % of control (dose: 7.0 mg/kg/injection, schedule: Q01DX005 (ip), vehicle: water); 92 % of control (dose: 14.0 mg/kg/injection, schedule: Q01DX005 (ip), vehicle: water); 94 % of control (dose: 28.0 mg/kg/injection, schedule: Q01DX005 (ip), vehicle: water).

Turning to `COc1cccc2c1-c1nc(N)c3c(OC)cccc3c1C2=O`, the T/C runs as follows: (dose: 100.0 mg/kg/injection, schedule: Q04DX002 (ip), vehicle: Klucel (hydroxypropylcellulose) (HPC)) 106 % of control; (dose: 200.0 mg/kg/injection, schedule: Q04DX002 (ip), vehicle: Klucel (hydroxypropylcellulose) (HPC)) 108 % of control; (dose: 400.0 mg/kg/injection, schedule: Q04DX002 (ip), vehicle: Klucel (hydroxypropylcellulose) (HPC)) 107 % of control.

On to `CN(C)c1noc2c1c(=O)n(C)c(=O)n2C`, for which the T/C is 105 % of control (dose: 60.0 mg/kg/injection, schedule: Q01DX005 (ip), vehicle: saline); 100 % of control (dose: 120.0 mg/kg/injection, schedule: Q01DX005 (ip), vehicle: saline); 99 % of control (dose: 240.0 mg/kg/injection, schedule: Q01DX005 (ip), vehicle: saline).

For the compound `CCOC(=O)Cn1cnc2sc3c(c2c1=O)CCCC3`, the T/C is, setting by setting: under setting [2], 100 % of control; under setting [3], 98 % of control; under setting [4], 89 % of control.

Consider `CNC(=O)OCc1c(COC(=O)NC)c(-c2ccc(Cl)c(Cl)c2)n2c1SCC2`, for which the T/C under setting [2] was 106 % of control and 123 % of control.

As for `NC(CC(=O)O)c1ccccc1` (stereo unspecified), the T/C under setting [5] is 107 % of control; the T/C under setting [6] is 102 % of control; the T/C under setting [7] was 102 % of control; the T/C (dose: 400.0 mg/kg/injection, schedule: Q01DX009 (ip), vehicle: saline with Tween-80) is 90 % of control.
